Earlier results as cited in Sander's compilation of Henry's law constants (doi:10.1063/1.555654).

assay: Henry solubility constant Hcp at 298.15 K (mol/(m3 Pa)); settings: reference: Mackay and Shiu (1981); cited value

Row | SMILES | Henry solubility constant Hcp
1 | CCCCCCCC [octane] | 3.3e-06
2 | CC(C)CCl [1-chloro-2-methylpropane] | 0.0083
3 | CC(C)C [2-methylpropane] | 8.3e-06
4 | Ic1ccccc1 [iodobenzene] | 0.0077
5 | CCCCC(C)C [2-methylhexane] | 2.9e-06
6 | CC(C)C(C)C(C)C [2,3,4-trimethylpentane] | 5.3e-06
7 | CC(C)CCC(C)(C)C [2,2,5-trimethylhexane] | 2.9e-06
8 | COP(=S)(Oc1cc(Cl)c(Br)cc1Cl)c1ccccc1 (stereo unspecified) [leptophos] | 3.7
9 | ClCC(Cl)(Cl)Cl [1,1,1,2-tetrachloroethane] | 0.0036
10 | C=CC=C [1,3-butadiene] | 0.00013
11 | ClC(Cl)=C(Cl)Cl [tetrachloroethene] | 0.00043
12 | C=CCCCCCC [1-octene] | 1e-05
13 | CCC(C)C [2-methylbutane] | 7.2e-06
14 | c1ccc2c(c1)ccc1ccccc12 [phenanthrene] | 0.25
15 | CC1CCCC1 [methylcyclopentane] | 2.7e-05
16 | Cc1cccc(C)c1 [1,3-dimethylbenzene] | 0.0014
17 | C=C(C)CCC [2-methyl-1-pentene] | 3.6e-05
18 | C=C [ethene] | 4.6e-05
19 | CCCCCCC [heptane] | 4.3e-06
20 | CC1CCCCC1 [methylcyclohexane] | 2.5e-05
21 | CCC(C)CC [3-methylpentane] | 5.8e-06
22 | CC(C)CC(C)C [2,4-dimethylpentane] | 3.3e-06
23 | COP(=S)(OC)Oc1ccc([N+](=O)[O-])cc1 [methylparathion] | 50
24 | CCCCCC1CCCC1 [pentylcyclopentane] | 5.4e-06
25 | CCCCCC [hexane] | 5.9e-06
26 | ClC1C(Cl)C(Cl)C(Cl)C(Cl)C1Cl (stereo unspecified) [γ-1,2,3,4,5,6-hexachlorocyclohexane] | 3.1

Row | SMILES | Henry solubility constant Hcp
27 | CC(C)Cc1ccccc1 [(2-methylpropyl)-benzene] | 0.0003
28 | Clc1ccc(Cl)cc1 [1,4-dichlorobenzene] | 0.0063
29 | Fc1ccccc1 [fluorobenzene] | 0.0016
30 | Clc1cccc(Cl)c1 [1,3-dichlorobenzene] | 0.0028
31 | CCCCc1ccccc1 [butylbenzene] | 0.00077
32 | Clc1ccc(C(c2ccc(Cl)cc2)C(Cl)(Cl)Cl)cc1 [1,1,1-trichloro-2,2-bis-(4-chlorophenyl)-ethane] | 0.19
33 | C[C@@H]1CCCC[C@@H]1C [cis-1,2-dimethylcyclohexane] | 2.8e-05
34 | ClCC(Cl)Cl [1,1,2-trichloroethane] | 0.0083
35 | c1ccc2cc3ccccc3cc2c1 [anthracene] | 0.17
36 | Cc1ccccc1C [1,2-dimethylbenzene] | 0.002
37 | CC(C)(C)C [dimethylpropane] | 2.7e-06
38 | Clc1ccccc1 [chlorobenzene] | 0.0029
39 | CCCC(C)C [2-methylpentane] | 5.9e-06
40 | BrC(Br)Br [tribromomethane] | 0.016
41 | ClC1=C(Cl)[C@]2(Cl)[C@H]3[C@H]([C@@H]4C=C[C@H]3C4)[C@@]1(Cl)C2(Cl)Cl [aldrin] | 0.36
42 | c1ccc2ccccc2c1 [naphthalene] | 0.023
43 | CCC(C)c1ccccc1 (stereo unspecified) [(1-methylpropyl)-benzene] | 0.00071
44 | C=CC(C)C [3-methyl-1-butene] | 1.8e-05
45 | C1CCCCC1 [cyclohexane] | 5.6e-05
46 | Cc1ccc(C)cc1 [1,4-dimethylbenzene] | 0.0014
47 | CC(C)(C)c1ccccc1 [(1,1-dimethylethyl)-benzene] | 0.00083
48 | C=CCCC [1-pentene] | 2.5e-05
49 | C#CCC [1-butyne] | 0.00052
50 | C[C@H]1CC[C@H](C)CC1 [trans-1,4-dimethylcyclohexane] | 1.1e-05
51 | Cc1cc(C)cc(C)c1 [1,3,5-trimethylbenzene] | 0.0017
52 | CCCCCc1ccccc1 [pentylbenzene] | 0.0017

Row | SMILES | Henry solubility constant Hcp
53 | CCc1cccc2ccccc12 [1-ethylnaphthalene] | 0.026
54 | CCCCCCCCCCCC [dodecane] | 1.3e-06
55 | ClC(Cl)(Cl)Cl [tetrachloromethane] | 0.0005
56 | Cc1cccc(C)c1C [1,2,3-trimethylbenzene] | 0.0031
57 | c1ccc2c(c1)Cc1ccccc1-2 [2,3-benzindene] | 0.12
58 | C=CCC(C)C [4-methyl-1-pentene] | 1.6e-05
59 | CCCCC(C)CC (stereo unspecified) [3-methylheptane] | 2.7e-06
60 | CCc1ccc(C)cc1 [1-ethyl-4-methylbenzene] | 0.002
61 | CCc1ccccc1 [ethylbenzene] | 0.0013
62 | CCCl [chloroethane] | 0.005
63 | CC(Cl)(Cl)Cl [1,1,1-trichloroethane] | 0.00036
64 | c1ccccc1 [benzene] | 0.0018
65 | CCCCC [pentane] | 8e-06
66 | c1ccc2c(c1)-c1cccc3cccc-2c13 [benzo[jk]fluorene] | 0.0045
67 | CC(C)C(C)C [2,3-dimethylbutane] | 7.7e-06
68 | C=CC(=C)C [2-methyl-1,3-butadiene] | 0.00013
69 | c1ccc(-c2ccccc2)cc1 [biphenyl] | 0.036
70 | CCCCCCCCCC [decane] | 1.4e-06
71 | Cc1ccc(C(C)C)cc1 [1-methyl-4-(1-methylethyl)-benzene] | 0.0013
72 | CCc1ccc2ccccc2c1 [2-ethylnaphthalene] | 0.012
73 | BrCBr [dibromomethane] | 0.031
74 | Cc1ccc(C)c(C)c1 [1,2,4-trimethylbenzene] | 0.0017
75 | CCC(C)(C)C [2,2-dimethylbutane] | 5.8e-06
76 | Cl/C=C/CCl [trans-1,3-dichloropropene] | 0.0056
77 | CCCC [butane] | 1e-05
78 | C#CC [propyne] | 0.0009

Row | SMILES | Henry solubility constant Hcp
79 | CCC(C)C(C)C (stereo unspecified) [2,3-dimethylpentane] | 5.7e-06
80 | C/C=C/CCCC [trans-2-heptene] | 2.4e-05
81 | ClC1=C(Cl)[C@]2(Cl)[C@@H]3[C@@H]4C[C@@H]([C@H]5O[C@@H]45)[C@@H]3[C@@]1(Cl)C2(Cl)Cl [dieldrin] | 0.91
82 | CCCC(C)(C)C [2,2-dimethylpentane] | 3.1e-06
83 | ClC(Cl)C(Cl)(Cl)Cl [pentachloroethane] | 0.0045
84 | CCCCCCCCC [nonane] | 2e-06
85 | C=CC [propene] | 4.7e-05
86 | ClC(Cl)C(Cl)Cl [1,1,2,2-tetrachloroethane] | 0.021
87 | CCC(C)(C)CC [3,3-dimethylpentane] | 5.4e-06
88 | C1CCCC1 [cyclopentane] | 5.4e-05
89 | Cc1cccc2ccccc12 [1-methylnaphthalene] | 0.022
90 | CC(C)CC(C)(C)C [2,2,4-trimethylpentane] | 3e-06
91 | c1cc2c3c(cccc3c1)CC2 [acenaphthene] | 0.042
92 | CCCC(C)CC (stereo unspecified) [3-methylhexane] | 4.2e-06
93 | CC1CCC(C)(C)C1 (stereo unspecified) [1,1,3-trimethylcyclopentane] | 6.3e-06
94 | Brc1ccccc1 [bromobenzene] | 0.0048
95 | ClCCl [dichloromethane] | 0.0038
96 | CCCCC(C)CCC (stereo unspecified) [4-methyloctane] | 1e-06
97 | Cl/C=C\CCl [cis-1,3-dichloropropene] | 0.0042
98 | Cc1ccccc1 [methylbenzene] | 0.0015
99 | CCCc1ccccc1 [propylbenzene] | 0.0014
100 | C=C(Cl)CCl [2,3-dichloropropene] | 0.0028
101 | C=CCCl [3-chloro-1-propene] | 0.00091
